Assay results from patent US20210236582A1, “ANTIMICROBIAL COMPOSITION BASED ON POLYPHENOLS AND POLYSACCHARIDES, METHOD FOR PREPARING THEREOF AND USE OF THE SAME” (priority 2018, published 2021).
Values after ≈ are worked out from the molar mass of the structure shown.

Experiments:
[1] = test system: Influenza A/Puerto-Rico/8/34 (H1N1) virus; assay type: cell-based; settings: for Antiviral activity against A/PR8 (H1N1) virus ΔlgTCID50 av: pronounced antiviral activity ≥ 1.50
MDCK ECACC cell line = settings: MDCK ECACC cells, 48 h incubation, MTS
in vitro = settings: dog

gossypol acetic acid
Antiviral activity against A/PR8 (H1N1) virus IC50 av ([1]; MDCK ECACC cells, assessed after 48 h by CPE and HAR): 0.0012 | Antiviral activity against A/PR8 (H1N1) virus ΔlgTCID50 av [1]: 1.32 | Cytotoxicity CC50 av (MDCK ECACC cell line): 3.9 µg/mL

Cc1cc2c(C(C)C)c(O)c(O)cc2c(O)c1-c1c(C)cc2c(C(C)C)c(O)c(O)cc2c1O [Apogossypol, apogossypol]
Antiviral activity against A/PR8 (H1N1) virus ΔlgTCID50 av [1]: 0.50 | CC50 at 48 h (in vitro): 9.4 µg/mL (≈ 20.3 µM)
